Measurements: patent US20190029928A1, “Fibrous Structures Comprising Malodor Reduction Compositions” (The Procter & Gamble Company, priority 2017, published 2019)
Where “and” joins values, the source holds several entries; their conditions need not be identical. Equal values may be shown once. Read-outs that look alike come from different tables or passages of the source.

Text: The first step in the method for assigning a BI to a test sample material on the BI reference scale is to create the BI reference swatches. […] Fabric swatches for this test are white knit polycotton (4 inch×4 inch) swatches from EMC ordered as PC 50/50. The supplier is instructed to strip the swatches first, stripping involves washing twice with a fragrance-free detergent and rinsing three times.
Making the BI Reference Swatches
The BI scale contains one clean swatch with no malodor applied. […] These solutions are pipetted to the middle of the swatches. […] After drying for 30 minutes in a vented hood, the swatches are wrapped in aluminum foil to prevent odor contamination to the treated swatch. A clean untreated swatch is also included as the lowest anchor point of reference for malodor strength on the BI scale. The BI reference scale swatches should be used within 0.5 to 12 hours and discarded after 12 hours. The swatches are used as scale anchor points when graders evaluate a test sample(s) and are assigned a Blocker Index (BI) as show in Table 11 below.
The perfumer/expert grader is asked to rank order swatches according to a scale between 0 and 3.

Question: Which “BI rank Ave” value (2 μL 0.08% isovaleric acid, all graders (Table 11)) does the source give for `CC(C)CC(=O)O` [isovaleric acid] here?
Answer: 1.0

Question: And the “BI rank by individual expert grader” value (stripped swatch with 2 μL 0.08% isovaleric acid)?
Answer: 0.5 and 2.0 and 1.0

Question: And the “BI rank by individual expert grader” value (stripped swatch with 5 μL 0.08% isovaleric acid)?
Answer: 2.0 and 2.5

Question: And the “BI rank by individual expert grader” value (stripped swatch with 20 μL 0.08% isovaleric acid)?
Answer: 3.0 and 2.5
